Several values for one entry are separate records, joined by “and”; a condition that tells them apart may be missing. Identical values can stand only once.
System: Modic changes (MC) on MRI in chronic LBP patients
Assay: MRI study of size and type of Modic changes over one year after a single intravenous infusion of 5 mg zoledronic acid vs placebo
Assay type: in vivo, human
Experimental: This study was designed to compare changes in size and type of MC over one year after a single intravenous infusion of 5 mg zoledronic acid (ZA) vs placebo among chronic LBP patients with MC on MRI, and evaluate whether MRI changes correlate with improvement in clinical symptoms.
The study population consisted of patients with chronic LBP and MC on MRI. Inclusion criteria were LBP for at least three months, LBP intensity of at least six on a 10-cm Visual Analog Scale (VAS) or Oswestry Disability Index (ODI) of at least 30%, and a MC on MRI performed within at most six months prior to enrollment. The exclusion criteria included renal impairment, hypocalcaemia, hypersensitivity to bisphosphonates or the infusion, the presence of red flags, nerve root entrapment, willingness for early retirement, and childbearing potential.
All patients (N=20 in both intervention groups) had MRI at baseline (0.23-1.5 T) and one year (1.5-3 T). We evaluated the level, type, volume (cm^3) and proportion of M1 and M2 of all MC. MC were classified to pure M1 (M1 (100%)), mixed M1/2 with predominating M1 (M1/2 (65:35%)) or predominating M2 (M1/2 (35:65%)), and pure M2 (M2 (100%)). The first two were considered M1-dominant, and the latter two M2-dominant. Volumes of M1 and M2 were calculated separately for the primary MC, assumed to cause the symptoms, and for other MC. Cross tabulations were used to describe the distributions of MC type in ZA and placebo groups at baseline and one year. The treatment differences in M1 and M2 volumes, from baseline to one year, were analyzed using ANCOVA with adjustments for age, sex, body mass index and smoking. The correlations of MRI changes with changes in intensity of LBP (10-cm Visual Analog Scale) and Oswestry Disability Index (ODI) were analyzed using Pearson correlations.
Patients were randomized to receive a single intravenous infusion of 5 mg ZA in 100 ml saline (n=20) or 100 ml saline as placebo (n=20) over a 15-minute period. Before administration of the infusion, all patients received oral ibuprofen 600 mg or paracetamol 1 g to prevent acute phase reactions, and 100 000 units of Vitamin D (Vigantol®) to prevent hypocalcaemia. Patients, the principal investigator, performing the screening and follow-up assessments, and the radiologist evaluating the MRI scans were blinded to the treatment allocation.
Baseline MRIs were obtained with five 1.5 T units and a 0.23 T unit. There was some variation in imaging protocols due to the multiple units used. Protocols were of clinical imaging purpose established to spine imaging. The imaging parameters of sagittal T1-weighted (T1W) turbo spin-echo (TSE) or fast spin-echo (FSE) sequences with fluid attenuation inversion recovery (FLAIR) were repetition time (TR) 1800-2270 ms/inversion time (TI) 860 ms/echo time (TE) 9-29 ms (N=16) and without FLAIR: TR 326-793 ms/TE 8-18 ms (N=23). The imaging parameters of sagittal T2-weighted (T2W) TSE/FSE sequences were TR 3000-4500 ms/TE 105-130 ms (N=40). The imaging parameters of short tau inversion recovery sequences (STIR) were e.g. TR 3400/TI 150/TE 70. Spacing, including slice thickness and slice gap, of the image slices was 4.4-6.2 mm in all sequences.
At the one-year follow-up, MRIs were obtained with two 1.5 T units and a 3 T unit. The imaging parameters of sagittal T1-weighted TSE or FSE sequences with FLAIR were TR 2047-2270 ms/TI 860-900 ms/TE 9-29 ms (N=38) and without FLAIR: TR 540-587/TE 12-24 ms (N=2). The imaging parameters of sagittal T2-weighted TSE or FSE sequences were TR 2796-3500 ms/TE 101-123 ms (N=40). Spacing was 3.6-5 mm in all sequences.

[1] = ZA vs placebo, change to follow-up

## O=P(O)(O)C(O)(Cn1ccnc1)P(=O)(O)O [ZA, zoledronic acid]
ZA vs placebo
  Total volume of other than the primary Modic lesion, difference (95% CI), unadjusted: −0.21 (−1.28, 0.86) cm^3
  Volume of M1 of other than the primary Modic lesion, difference (95% CI), unadjusted: −0.17 (−2.12, 1.78) cm^3
  Volume of M2 of other than the primary Modic lesion, difference (95% CI), unadjusted: −0.04 (−1.99, 1.90) cm^3
[1]
  Total volume of the primary Modic lesion, difference (95% CI), adjusted for age, sex, BMI and smoking: −1.64 (−4.03, 0.76) cm^3
  Total volume of the primary Modic lesion, difference (95% CI), age-adjusted analysis: −1.46 (−3.50, 0.59) cm^3
  Volume of M1 of the primary Modic lesion, difference (95% CI), age-adjusted analysis: −1.92 (−4.65, 0.82) cm^3
  Volume of M2 of the primary Modic lesion, difference (95% CI), adjusted for age, sex, BMI and smoking: 0.12 cm^3 and 0.12 (−2.50, 2.75) cm^3
  Volume of M2 of the primary Modic lesion, difference (95% CI), age-adjusted analysis: 0.46 (−1.90, 2.82) cm^3
At baseline, placebo 22%
  Proportion of M1 volume of the total volume, other than primary MC: 13%
At one year, placebo 36%
  Proportion of M1 volume of the total volume, other than primary MC: 24%
baseline
  Total volume of other than the primary Modic lesion, mean (SD): 7.53 (7.53) cm^3
  Total volume of the primary Modic lesion, mean (SD): 12.0 cm^3 and 11.99 (5.14) cm^3
  Volume of M2 of other than the primary Modic lesion, mean (SD): 6.52 (7.63) cm^3
  Volume of M2 of the primary Modic lesion, mean (SD): 4.54 (3.90) cm^3
Baseline to follow-up
  Total volume of other than the primary Modic lesion, mean (SD) change: 0.39 (1.02) cm^3
  Volume of M1 of other than the primary Modic lesion, mean (SD) change: 0.86 (2.19) cm^3
  Volume of M2 of other than the primary Modic lesion, mean (SD) change: −0.47 (2.44) cm^3
Baseline to one year, placebo 11%
  Total volume of other than primary MC increased by: 5%
Baseline to one year, placebo 34%
  M2 volume of primary MC increased by: 56%
Baseline to one year, placebo increased by 18%
  M1 volume of primary MC decreased by: 13%
Baseline to one-year follow-up
  Total volume of the primary Modic lesion, mean (SD) change: 1.6 cm^3 and 1.58 (2.18) cm^3
  Volume of M1 of the primary Modic lesion, mean (SD) change: −0.96 cm^3 and −0.96 (4.33) cm^3
  Volume of M2 of the primary Modic lesion, mean (SD) change: 2.54 cm^3 and 2.54 (2.94) cm^3
baseline, n=17
  Volume of M1 of other than the primary Modic lesion, mean (SD): 1.02 (1.90) cm^3
baseline, n=20
  Volume of M1 of the primary Modic lesion, mean (SD): 7.44 (4.47) cm^3
follow-up
  Total volume of other than the primary Modic lesion, mean (SD): 7.92 (7.31) cm^3
  Volume of M1 of other than the primary Modic lesion, mean (SD): 1.88 (2.47) cm^3
  Volume of M2 of other than the primary Modic lesion, mean (SD): 6.05 (6.43) cm^3
follow-up (one year)
  Total volume of the primary Modic lesion, mean (SD): 13.57 (5.42) cm^3
  Volume of M1 of the primary Modic lesion, mean (SD): 6.48 (5.25) cm^3
  Volume of M2 of the primary Modic lesion, mean (SD): 7.09 (4.50) cm^3
one-year follow-up, placebo 15% (p=0.087)
  M1-dominant primary MC converted to M2-dominant: 45%

Reference: patent US20180256611A1, “BISPHOSPHONATES FOR INCREASING THE TYPE 2 CHARACTER OF A MODIC CHANGE” (ANTECIP BIOVENTURES II LLC, priority 2017, published 2018)
